Measurements: patent US12570671B2 (BRISTOL-MYERS SQUIBB COMPANY, priority 2020, dated 2026)
Values belong to the compound of their own block, whether it stands above or below them.

Legend:
Helios = Helios (Homo sapiens, UniProt Q96SW2+Q9UKS7); test: Helios Cellular Degradation Assay (Helios readout); type: cell-based; parameters: endogenous in cells; host or cells: Jurkat; conditions: Jurkat cells, 72 h incubation, Helios-PE antibody staining, flow cytometry; read-out: Helios Jurkat IC50
Protocol: (§1) Jurkat cells were plated at 80,000 cells/well in 40 μL RPMI+10% FBS in a 384 well cell culture plate prior to using acoustic dispensing technology for adding compound of interest. Cell cultures were incubated for 72 h at 37° C. and 5% C02. In order to facilitate analysis, cell cultures were spun down at 200 rpm for 5 min and the supernatant was discarded. After shaking the plate to dislodge the cell pellet, cells were resuspended in 50 μL of Fixation Buffer (eBioScience FoxP3 buffer set 00-5523-00) for 60 min at room temperature. After centrifuging and discarding the supernatant, cells were permeabilized with 50 μL of Permeabilization buffer (eBioScience FoxP3 buffer set 00-5523-00) for 10 min at room temperature. Following permeabilization, cells were spun down and the supernatant was replaced with 20 μL fluorescently labelled antibodies against Helios, Ikaros and Aiolos or corresponding Isotype controls in 1× Permeabilization buffer (Ikaros-Alexa488 [Biolegend, Cat #368408, 1:50], Helios-PE [CST, Cat #29360, 1:50], Aiolos-Alexa647 [Biolegend, Cat #371106Biolegend, 1:25]) and staining reactions were incubated for 1 h at room temperature; protected from light. Subsequently, 30 μL of 1× Permeabilization buffer was added prior to centrifuging the cells and discarding the supernatant. Stained cells were resuspended in 25 μL of flow cytometry staining buffer (PBS+0.2% BSA) and analyzed using an Intellicyt Ique Plus flow cytometer.

Ikaros = Ikaros (Homo sapiens, UniProt Q13422+Q96SW2); test: Helios Cellular Degradation Assay (Ikaros readout); type: cell-based; parameters: endogenous in cells; host or cells: Jurkat; conditions: Jurkat cells, 72 h incubation, Ikaros-Alexa488 antibody staining, flow cytometry; read-out: Ikaros Jurkat IC50
Protocol: as §1

Helios, sequence (Q9UKS7 whole entry): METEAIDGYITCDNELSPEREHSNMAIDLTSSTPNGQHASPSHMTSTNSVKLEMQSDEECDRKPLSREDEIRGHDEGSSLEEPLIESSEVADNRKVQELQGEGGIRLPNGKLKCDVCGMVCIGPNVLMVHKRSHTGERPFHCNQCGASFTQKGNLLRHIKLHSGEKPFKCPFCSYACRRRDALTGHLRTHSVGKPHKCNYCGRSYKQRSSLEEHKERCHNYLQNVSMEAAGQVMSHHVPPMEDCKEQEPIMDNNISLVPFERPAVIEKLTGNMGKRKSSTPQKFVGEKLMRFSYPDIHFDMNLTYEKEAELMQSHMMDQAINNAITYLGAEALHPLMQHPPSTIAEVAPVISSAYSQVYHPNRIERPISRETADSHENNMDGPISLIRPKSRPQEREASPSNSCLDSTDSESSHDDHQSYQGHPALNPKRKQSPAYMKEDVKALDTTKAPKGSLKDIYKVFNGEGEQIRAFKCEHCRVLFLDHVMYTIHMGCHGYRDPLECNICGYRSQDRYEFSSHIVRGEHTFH
Helios, sequence (Q96SW2 whole entry): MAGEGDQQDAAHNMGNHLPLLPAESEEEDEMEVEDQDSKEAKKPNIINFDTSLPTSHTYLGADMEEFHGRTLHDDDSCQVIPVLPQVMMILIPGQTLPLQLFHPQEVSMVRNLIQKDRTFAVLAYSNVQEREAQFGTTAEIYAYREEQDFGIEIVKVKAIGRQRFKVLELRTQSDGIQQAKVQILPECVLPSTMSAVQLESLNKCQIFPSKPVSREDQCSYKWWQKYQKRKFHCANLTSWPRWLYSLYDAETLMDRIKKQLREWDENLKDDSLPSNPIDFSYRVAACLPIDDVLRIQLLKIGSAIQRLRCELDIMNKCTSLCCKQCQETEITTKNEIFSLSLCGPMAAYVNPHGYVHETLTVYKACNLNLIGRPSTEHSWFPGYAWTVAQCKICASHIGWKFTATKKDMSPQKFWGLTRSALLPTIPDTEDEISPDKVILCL
Helios, sequence (Q16531 whole entry partner): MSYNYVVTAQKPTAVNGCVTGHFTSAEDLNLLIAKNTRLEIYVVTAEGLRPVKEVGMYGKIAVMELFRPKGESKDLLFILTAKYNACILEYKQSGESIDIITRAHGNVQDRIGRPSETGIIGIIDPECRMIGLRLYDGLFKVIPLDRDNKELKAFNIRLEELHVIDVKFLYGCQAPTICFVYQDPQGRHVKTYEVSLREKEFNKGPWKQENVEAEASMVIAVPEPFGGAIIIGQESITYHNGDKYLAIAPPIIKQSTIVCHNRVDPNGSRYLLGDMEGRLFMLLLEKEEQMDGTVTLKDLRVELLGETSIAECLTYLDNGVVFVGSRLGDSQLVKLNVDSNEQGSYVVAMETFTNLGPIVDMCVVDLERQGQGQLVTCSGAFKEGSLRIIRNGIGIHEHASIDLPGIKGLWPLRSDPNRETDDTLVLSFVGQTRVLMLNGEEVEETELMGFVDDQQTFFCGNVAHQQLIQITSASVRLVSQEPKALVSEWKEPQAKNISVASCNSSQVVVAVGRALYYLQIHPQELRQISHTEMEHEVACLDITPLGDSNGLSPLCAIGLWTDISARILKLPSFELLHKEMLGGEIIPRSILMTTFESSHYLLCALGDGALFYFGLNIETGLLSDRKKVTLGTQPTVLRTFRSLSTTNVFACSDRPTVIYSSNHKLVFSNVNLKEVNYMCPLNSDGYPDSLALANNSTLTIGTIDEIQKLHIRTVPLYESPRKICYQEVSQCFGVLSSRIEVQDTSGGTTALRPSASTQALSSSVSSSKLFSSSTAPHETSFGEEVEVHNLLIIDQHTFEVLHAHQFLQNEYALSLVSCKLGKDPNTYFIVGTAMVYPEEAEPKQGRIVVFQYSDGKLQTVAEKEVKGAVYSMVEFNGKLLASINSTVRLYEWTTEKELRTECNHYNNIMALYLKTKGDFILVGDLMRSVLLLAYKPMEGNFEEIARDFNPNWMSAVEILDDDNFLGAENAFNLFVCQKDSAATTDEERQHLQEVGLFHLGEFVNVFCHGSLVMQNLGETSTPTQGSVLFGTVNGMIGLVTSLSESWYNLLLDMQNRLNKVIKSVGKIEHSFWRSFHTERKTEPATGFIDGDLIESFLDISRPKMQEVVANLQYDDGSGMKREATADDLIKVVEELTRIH
Ikaros, sequence (Q13422 whole entry): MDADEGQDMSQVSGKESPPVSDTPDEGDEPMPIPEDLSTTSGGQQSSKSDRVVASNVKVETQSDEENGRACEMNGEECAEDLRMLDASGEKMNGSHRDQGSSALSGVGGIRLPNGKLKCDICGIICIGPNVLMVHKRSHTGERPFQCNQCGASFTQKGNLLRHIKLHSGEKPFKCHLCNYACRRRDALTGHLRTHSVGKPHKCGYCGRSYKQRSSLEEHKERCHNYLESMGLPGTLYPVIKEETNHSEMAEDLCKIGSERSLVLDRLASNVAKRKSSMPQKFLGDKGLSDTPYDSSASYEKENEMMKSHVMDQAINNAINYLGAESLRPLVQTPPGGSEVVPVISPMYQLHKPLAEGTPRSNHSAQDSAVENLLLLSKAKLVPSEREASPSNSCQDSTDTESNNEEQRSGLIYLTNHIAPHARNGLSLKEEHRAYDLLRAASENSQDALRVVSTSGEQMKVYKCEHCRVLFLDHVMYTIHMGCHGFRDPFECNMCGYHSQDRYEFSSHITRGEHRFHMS
Ikaros, sequence (Q96SW2 whole entry): as the sequence (Q96SW2 whole entry) above
Ikaros, sequence (Q16531 whole entry partner): as the sequence (Q16531 whole entry partner) above

Structure (SMILES): Nc1ccc([N+](=O)[O-])c(-c2ccc3c(c2)CN(C2CCC(=O)NC2=O)C3=O)n1 (stereo not drawn) [Example 79, 3-[5-(6-Amino-3-nitropyridin-2-yl)-1-oxo-2,3-dihydro-1H-isoindol-2-yl]piperidine-2,6-dione]
DC50 (Helios): > 20000 nM
DC50 (Ikaros): > 20000 nM

Structure (SMILES): CC(=O)Nc1nc(-c2ccc3c(c2)CN(C2CCC(=O)NC2=O)C3=O)cc2ccccc12 (stereo not drawn) [Example 48, N-{3-[2-(2,6-Dioxopiperidin-3-yl)-1-oxo-2,3-dihydro-1H-isoindol-5-yl]isoquinolin-1-yl}acetamide]
DC50 (Helios): 90 nM
DC50 (Ikaros): > 20000 nM

Structure (SMILES): CC(C)(C)Cn1ccc(=O)c2c(N)nc(-c3ccc4c(c3)CN(C3CCC(=O)NC3=O)C4=O)cc21 (stereo not drawn) [Example 46, 3-{5-[5-Amino-1-(2,2-dimethylpropyl)-4-oxo-1,4-dihydro-1,6-naphthyridin-7-yl]-1-oxo-2,3-dihydro-1H-isoindol-2-yl}piperidine-2,6-dione]
DC50 (Helios): 3 nM

Structure (SMILES): O=C1CCC(N2Cc3cc(-c4ncnc5c4oc4ccccc45)ccc3C2=O)C(=O)N1 (stereo not drawn) [Example 3, 3-(5-{8-oxa-3,5-diazatricyclo[7.4.0.0^2,7]trideca-1(9),2,4,6,10,12-hexaen-6-yl}-1-oxo-2,3-dihydro-1H-isoindol-2-yl)piperidine-2,6-dione]
DC50 (Helios): 36 nM
DC50 (Ikaros): > 20000 nM

Structure (SMILES): O=C1CCC(N2Cc3cc(-c4cc5cc[nH]c5nn4)ccc3C2=O)C(=O)N1 (stereo not drawn) [Example 6, 3-(1-oxo-5-{7H-pyrrolo[2,3-c]pyridazin-3-yl}-2,3-dihydro-1H-isoindol-2-yl)piperidine-2,6-dione]
DC50 (Helios): 140 nM
DC50 (Ikaros): > 20000 nM

Structure (SMILES): O=C1CCC(N2Cc3cc(-c4ncc5cc(F)ccc5n4)ccc3C2=O)C(=O)N1 (stereo not drawn) [Example 35, 3-[5-(6-fluoroquinazolin-2-yl)-1-oxo-2,3-dihydro-1H-isoindol-2-yl]piperidine-2,6-dione]
DC50 (Helios): 53 nM
DC50 (Ikaros): > 20000 nM

Structure (SMILES): Cc1cc2ccccc2nc1-c1ccc2c(c1)CN(C1CCC(=O)NC1=O)C2=O (stereo not drawn) [Example 32, 3-[5-(3-methylquinolin-2-yl)-1-oxo-2,3-dihydro-1H-isoindol-2-yl]piperidine-2,6-dione]
DC50 (Helios): 480 nM
DC50 (Ikaros): > 20000 nM

Structure (SMILES): CNc1nc(-c2ccc3c(c2)CN(C2CCC(=O)NC2=O)C3=O)cc2ncccc12 (stereo not drawn) [Example 51, 3-{5-[5-(Methylamino)-1,6-naphthyridin-7-yl]-1-oxo-2,3-dihydro-1H-isoindol-2-yl}piperidine-2,6-dione]
DC50 (Helios): 26 nM
DC50 (Ikaros): > 20000 nM

Structure (SMILES): O=C1CCC(N2Cc3cc(-c4nccc5ccc(F)cc45)ccc3C2=O)C(=O)N1 (stereo not drawn) [Example 19, 3-[5-(7-fluoroisoquinolin-1-yl)-1-oxo-2,3-dihydro-1H-isoindol-2-yl]piperidine-2,6-dione]
DC50 (Helios): 30 nM
DC50 (Ikaros): 140 nM

Structure (SMILES): CC(=O)N(C)c1nc(-c2ccc3c(c2)CN(C2CCC(=O)NC2=O)C3=O)cc2ccccc12 (stereo not drawn) [Example 52, N-{3-[2-(2,6-Dioxopiperidin-3-yl)-1-oxo-2,3-dihydro-1H-isoindol-5-yl]isoquinolin-1-yl}-N-methylacetamide]
DC50 (Helios): 210 nM
DC50 (Ikaros): > 20000 nM

Structure (SMILES): CN(C)c1nc(-c2ccc3c(c2)CN(C2CCC(=O)NC2=O)C3=O)cc2ccccc12 (stereo not drawn) [Example 49, 3-{5-[1-(Dimethylamino)isoquinolin-3-yl]-1-oxo-2,3-dihydro-1H-isoindol-2-yl}piperidine-2,6-dione]
DC50 (Helios): 37 nM
DC50 (Ikaros): > 20000 nM

Structure (SMILES): CNc1nc(-c2ccc3c(c2)CN(C2CCC(=O)NC2=O)C3=O)cc2c1ncn2C (stereo not drawn) [Example 61, 3-{5-[1-methyl-4-(methylamino)-1H-imidazo[4,5-c]pyridin-6-yl]-1-oxo-2,3-dihydro-1H-isoindol-2-yl}piperidine-2,6-dione]
DC50 (Helios): 7 nM

Structure (SMILES): N#Cc1cc2ccccc2c(-c2ccc3c(c2)CN(C2CCC(=O)NC2=O)C3=O)n1 (stereo not drawn) [Example 59, 1-[2-(2,6-dioxopiperidin-3-yl)-1-oxo-2,3-dihydro-1H-isoindol-5-yl]isoquinoline-3-carbonitrile]
DC50 (Helios): 24 nM

More lines, now with the values ahead:

DC50 (Helios): 40 nM
Structure (SMILES): N#Cc1c(C(F)(F)F)cc(-c2ccc3c(c2)CN(C2CCC(=O)NC2=O)C3=O)nc1N (stereo not drawn) [Example 177, 2-amino-6-(2-(2,6-dioxopiperidin-3-yl)-1-oxoisoindolin-5-yl)-4-(trifluoromethyl)nicotine-nitrile]

DC50 (Helios): 70 nM
DC50 (Ikaros): ≥ 10000 nM
Structure (SMILES): COc1c(C)cc(-c2ccc3c(c2)CN(C2CCC(=O)NC2=O)C3=O)nc1N (stereo not drawn) [Example 153, 3-(5-(6-amino-5-methoxy-4-methylpyridin-2-yl)-1-oxoisoindolin-2-yl)piperidine-2,6-dione]

DC50 (Helios): 110 nM
DC50 (Ikaros): 310 nM
Structure (SMILES): CCNc1nc2ccccc2nc1-c1ccc2c(c1)CN(C1CCC(=O)NC1=O)C2=O (stereo not drawn) [Example 95, 3-(5-(3-(ethylamino)quinoxalin-2-yl)-1-oxoisoindolin-2-yl)piperidine-2,6-dione]

DC50 (Helios): 100 nM
DC50 (Ikaros): 160 nM
Structure (SMILES): O=C1CCC(N2Cc3cc(-c4cc5c(cn4)CCCC5)ccc3C2=O)C(=O)N1 (stereo not drawn) [Example 115, 3-(1-oxo-5-(5,6,7,8-tetrahydroisoquinolin-3-yl)isoindolin-2-yl)piperidine-2,6-dione]

DC50 (Helios): 2 nM
DC50 (Ikaros): ≥ 20000 nM
Structure (SMILES): Nc1ccc2cnc(-c3ccc4c(c3)CN(C3CCC(=O)NC3=O)C4=O)cc2c1 (stereo not drawn) [Example 102, 3-(5-(6-aminoisoquinolin-3-yl)-1-oxoisoindolin-2-yl)piperidine-2,6-dione]

DC50 (Helios): 10 nM
DC50 (Ikaros): ≥ 10000 nM
Structure (SMILES): Cc1cc(-c2ccc3c(c2)CN(C2CCC(=O)NC2=O)C3=O)nc(N)c1C (stereo not drawn) [Example 151, 3-(5-(6-amino-4,5-dimethylpyridin-2-yl)-1-oxoisoindolin-2-yl)piperidine-2,6-dione]

DC50 (Helios): 40 nM
DC50 (Ikaros): 1280 nM
Structure (SMILES): Cc1cnc(-c2ccc3c(c2)CN(C2CCC(=O)NC2=O)C3=O)cc1C (stereo not drawn) [Example 121, 3-(5-(4,5-dimethylpyridin-2-yl)-1-oxoisoindolin-2-yl)piperidine-2,6-dione]

DC50 (Helios): 130 nM
DC50 (Ikaros): ≥ 20000 nM
Structure (SMILES): COc1cccnc1-c1ccc2c(c1)CN(C1CCC(=O)NC1=O)C2=O (stereo not drawn) [Example 104, 3-(5-(3-methoxypyridin-2-yl)-1-oxoisoindolin-2-yl)piperidine-2,6-dione]

DC50 (Helios): 830 nM
DC50 (Ikaros): ≥ 10000 nM
Structure (SMILES): O=C1CCC(N2Cc3cc(-c4cc(CO)ccn4)ccc3C2=O)C(=O)N1 (stereo not drawn) [Example 108, 3-(5-(4-(hydroxymethyl)pyridin-2-yl)-1-oxoisoindolin-2-yl)piperidine-2,6-dione]

DC50 (Helios): 10 nM
DC50 (Ikaros): 1820 nM
Structure (SMILES): CCOc1c(-c2ccc3c(c2)CN(C2CCC(=O)NC2=O)C3=O)ncc2ccccc12 (stereo not drawn) [Example 85, 3-(5-(4-ethoxyisoquinolin-3-yl)-1-oxoisoindolin-2-yl)piperidine-2,6-dione]

DC50 (Helios): 20 nM
DC50 (Ikaros): ≥ 20000 nM
Structure (SMILES): Cc1nc(-c2ccc3c(c2)CN(C2CCC(=O)NC2=O)C3=O)cc2ccccc12 (stereo not drawn) [Example 88, 3-(5-(1-methylisoquinolin-3-yl)-1-oxoisoindolin-2-yl)piperidine-2,6-dione]

DC50 (Helios): 50 nM
DC50 (Ikaros): 320 nM
Structure (SMILES): O=C1CCC(N2Cc3cc(-c4cc5[nH]ccc5cn4)ccc3C2=O)C(=O)N1 (stereo not drawn) [Example 159, 3-(1-oxo-5-(1H-pyrrolo[3,2-c]pyridin-6-yl)isoindolin-2-yl)piperidine-2,6-dione]

DC50 (Helios): 3 nM
DC50 (Ikaros): ≥ 20000 nM
Structure (SMILES): CCOc1c(-c2ccc3c(c2)CN([C@H]2CCC(=O)NC2=O)C3=O)nc(N)c2ccccc12 [Example 84, (3S)-3-[5-(1-amino-4-ethoxyisoquinolin-3-yl)-1-oxo-2,3-dihydro-1H-isoindol-2-yl]piperidine-2,6-dione]

DC50 (Helios): 50 nM
DC50 (Ikaros): > 10000 nM
Structure (SMILES): CC(=O)Nc1nc(-c2ccc3c(c2)CN(C2CCC(=O)NC2=O)C3=O)cc(C)c1C (stereo not drawn) [Example 167, N-(6-(2-(2,6-dioxopiperidin-3-yl)-1-oxoisoindolin-5-yl)-3,4-dimethylpyridin-2-yl) acetamide]

DC50 (Helios): 4160 nM
DC50 (Ikaros): ≥ 20000 nM
Structure (SMILES): O=C1CCC(N2Cc3cc(-c4ccc5[nH]cnc5n4)ccc3C2=O)C(=O)N1 (stereo not drawn) [Example 139, 3-(5-(1H-imidazo[4,5-b]pyridin-5-yl)-1-oxoisoindolin-2-yl)piperidine-2,6-dione]

DC50 (Helios): 150 nM
DC50 (Ikaros): ≥ 10000 nM
Structure (SMILES): Nc1ccc(-c2ccc3c(c2)CN(C2CCC(=O)NC2=O)C3=O)nc1N (stereo not drawn) [Example 117, 3-(5-(5,6-diaminopyridin-2-yl)-1-oxoisoindolin-2-yl)piperidine-2,6-dione]

DC50 (Helios): 30 nM
Structure (SMILES): CCCc1cc(-c2ccc3c(c2)CN(C2CCC(=O)NC2=O)C3=O)nc(N)c1C#N (stereo not drawn) [Example 172, 2-amino-6-(2-(2,6-dioxopiperidin-3-yl)-1-oxoisoindolin-5-yl)-4-propylnicotinonitrile]

DC50 (Helios): 350 nM
Structure (SMILES): N#Cc1c(C(F)F)cc(N)nc1-c1ccc2c(c1)CN(C1CCC(=O)NC1=O)C2=O (stereo not drawn) [Example 174, 6-amino-4-(difluoromethyl)-2-(2-(2,6-dioxopiperidin-3-yl)-1-oxoisoindolin-5-yl) nicotinonitrile]

DC50 (Helios): 90 nM
Structure (SMILES): O=C1CCC(N2Cc3cc(-c4nc5ccccc5nc4C4CC4)ccc3C2=O)C(=O)N1 (stereo not drawn) [Example 97, 3-(5-(3-cyclopropylquinoxalin-2-yl)-1-oxoisoindolin-2-yl)piperidine-2,6-dione]
